Values of other authors in patent US20220226500A1, “FULLERENIC ELLAGIC LUTEOLIN AND METHODS” (Sinapu LLC, priority 2021, published 2022).

Legend:
[1] = human body
[2] = in water

time in which more than half of the absorbed blood plasma level is broken down [1]: within one hour
solubility [2]: 0.0097 grams per liter of water
SMILES: O=c1oc2c(O)c(O)cc3c(=O)oc4c(O)c(O)cc1c4c23 [ellagic acid]
